Measurements reported in US20170152226A1, “FUNCTIONALISED AND SUBSTITUTED INDOLES AS ANTI-CANCER AGENTS” (Novogen Ltd., priority 2014, published 2017).
Like-named read-outs stand apart in the source and are kept apart here. Each block holds one compound with its values, some of them ahead of it.

Legend:
Experiment in all cases: Anti-proliferative activity, cell-titre luminescent viability assay
Assay type in all cases: cell-based
A549 = settings: Homo sapiens, read-out: IC50 Lung (NSLC) A549
Procedure: (§1) The ability of compounds 3501-3540 and 3542-3545 to inhibit the proliferation of cancer cells representative of neuroblastoma, melanoma, prostate cancer, colorectal cancer, non-small cell lung carcinoma, and triple negative breast cancer was assessed. Briefly, a pre-determined number of cells as calculated from cell growth assays for each of the cell lines employed were seeded into their respective culture medium (using ATCC culture parameters—http://www.atcc.org) and cultured for 24 hours at 37° C. and 5% CO2 in 96-well culture plates. Once attached, each cell line was then exposed to increasing concentrations of each respective analogue (0.03, 0.3, 3 and 30 μM for compounds in Table 1; 0.1, 0.3, 1, 3, 10 and 30 μM for compounds in Table 2), cultured for a further 72 hours and exposed to cell-titre luminescent reagent (100 μL/well) for a further 30 min) to assess for cell viability. Luminescence was captured using an EnVision multilabel reader and the data for each analogue concentration was normalized, as a percentage, to the no treatment control. For compounds 3501, 3503, 3505-08, 3512-18, 3520, 3522-24 and 3531-36, semi-log plots of Percent of Control versus concentration were prepared and IC50 determined using linear regression analysis. For compounds 3502, 3504, 3509-11, 3519, 3521, 3525-30, 3537-40 and 3542-45, cell viability was normalized to control (vehicle alone) and dose-response curves, and half maximal effective concentration (EC50) values were determined using Graph Pad Prism 6 (nonlinear regression sigmoidal dose-response variable slope).

CaCo2 = settings: Homo sapiens, read-out: IC50 Colorectal CaCo2
Procedure: as §1

DU145 = settings: Homo sapiens, read-out: IC50 Prostate DU145
Procedure: as §1

MDA-MB-231 = settings: Homo sapiens, read-out: IC50 Breast MDA-MB-231
Procedure: as §1

PC3 = settings: Homo sapiens, read-out: IC50 Prostate PC3
Procedure: as §1

SK-Mel-28 = settings: Homo sapiens, SK-MEL-28, 72 hours, read-out: IC50 Melanoma SK-Mel-28
Procedure: as §1

SK-N-SH = settings: Homo sapiens, SK-N-SH, read-out: IC50 Neuroblastoma SK-N-SH
Procedure: as §1

[1] = A549, 72 h, 0.1, 0.3, 1, 3, 10 and 30 μM, nonlinear regression sigmoidal dose-response (EC50)
[2] = Caco-2, 72 h, 0.1, 0.3, 1, 3, 10 and 30 μM, nonlinear regression sigmoidal dose-response (EC50)
[3] = DU-145, 72 h, 0.1, 0.3, 1, 3, 10 and 30 μM, nonlinear regression sigmoidal dose-response (EC50)
[4] = MDA-MB-231, 72 h, 0.1, 0.3, 1, 3, 10 and 30 μM, nonlinear regression sigmoidal dose-response (EC50)
[5] = PC-3, 72 h, 0.1, 0.3, 1, 3, 10 and 30 μM, nonlinear regression sigmoidal dose-response (EC50)
[6] = 0.1, 0.3, 1, 3, 10 and 30 μM, nonlinear regression sigmoidal dose-response (EC50)
[7] = 72 h, 0.1, 0.3, 1, 3, 10 and 30 μM, nonlinear regression sigmoidal dose-response (EC50)
[8] = A549, 72 h, 0.03, 0.3, 3 and 30 μM, linear regression of semi-log plots
[9] = Caco-2, 72 h, 0.03, 0.3, 3 and 30 μM, linear regression of semi-log plots
[10] = DU-145, 72 h, 0.03, 0.3, 3 and 30 μM, linear regression of semi-log plots
[11] = MDA-MB-231, 72 h, 0.03, 0.3, 3 and 30 μM, linear regression of semi-log plots
[12] = PC-3, 72 h, 0.03, 0.3, 3 and 30 μM, linear regression of semi-log plots
[13] = 0.03, 0.3, 3 and 30 μM, linear regression of semi-log plots
[14] = 72 h, 0.03, 0.3, 3 and 30 μM, linear regression of semi-log plots

Compound: COc1cccc(CCN2CCN(C(=O)c3cccc(Oc4ccc5c(c4)c(C)c(C)n5CCCN4CCN(C)CC4)c3)CC2)c1 [Compound 3511, (3-((2,3-dimethyl-1-(3-(4-methylpiperazin-1-yl)propyl)-1H-indol-5-yl)oxy)phenyl)(4-(3-methoxyphenethyl)piperazin-1-yl)methanone]
IC50 (A549; [1]): 2.6 µM | IC50 (CaCo2; [2]): 3.5 µM | IC50 (DU145; [3]): 3.3 µM | IC50 (MDA-MB-231; [4]): 19.3 µM | IC50 (PC3; [5]): 2.6 µM | IC50 (SK-Mel-28; [6]): 6.5 µM | IC50 (SK-N-SH; [7]): 2.1 µM

Compound: Cc1c(C)n(CCCN2CCN(C)CC2)c2ccc(Oc3cccc(C(=O)N4CCN(CCc5ccccc5)CC4)c3)cc12 [Compound 3512, (3-((2,3-dimethyl-1-(3-(4-methylpiperazin-1-yl)propyl)-1H-indol-5-yl)oxy)phenyl)(4-phenethylpiperazin-1-yl)methanone]
IC50 (A549; [8]): 1.3 µM | IC50 (CaCo2; [9]): 3.2 µM | IC50 (DU145; [10]): 1.3 µM | IC50 (MDA-MB-231; [11]): 1.2 µM | IC50 (PC3; [12]): 2.1 µM | IC50 (SK-Mel-28; [13]): 0.7 µM | IC50 (SK-N-SH; [14]): 1.8 µM

Compound: COc1ccc(CCN2CCN(C(=O)c3cccc(Nc4ccc5c(c4)c(C)c(C)n5CCCN4CCN(C)CC4)c3)CC2)cc1 [Compound 3514, (3-((2,3-dimethyl-1-(3-(4-methylpiperazin-1-yl)propyl)-1H-indol-5-yl)amino)phenyl)(4-(4-methoxyphenethyl)piperazin-1-yl)methanone]
IC50 (A549; [8]): 1.4 µM | IC50 (CaCo2; [9]): 3.1 µM | IC50 (DU145; [10]): 3.8 µM | IC50 (MDA-MB-231; [11]): 1.3 µM | IC50 (PC3; [12]): 3.5 µM | IC50 (SK-Mel-28; [13]): 1.3 µM | IC50 (SK-N-SH; [14]): 1.3 µM

Compound: Cc1c(C)n(CCCN2CCN(C)CC2)c2ccc(Cc3ccc(C(=O)N4CCN(CCc5ccc(F)cc5)CC4)cc3)cc12 [Compound 3519, (4-((2,3-dimethyl-1-(3-(4-methylpiperazin-1-yl)propyl)-1H-indol-5-yl)methyl)phenyl)(4-(4-fluorophenethyl)piperazin-1-yl)methanone]
IC50 (A549; [1]): 4.4 µM | IC50 (CaCo2; [2]): 5.6 µM | IC50 (DU145; [3]): 4.3 µM | IC50 (MDA-MB-231; [4]): 5 µM | IC50 (PC3; [5]): 4.9 µM | IC50 (SK-Mel-28; [6]): 2.5 µM | IC50 (SK-N-SH; [7]): 2.6 µM

Compound: Cc1c(C)n(CCCN2CCN(C)CC2)c2ccc(Cc3ccc(C(=O)N4CCN(CCc5cccc(F)c5)CC4)cc3)cc12 [Compound 3522, (4-((2,3-dimethyl-1-(3-(4-methylpiperazin-1-yl)propyl)-1H-indol-5-yl)methyl)phenyl)(4-(3-fluorophenethyl)piperazin-1-yl)methanone]
IC50 (A549; [8]): 1.6 µM | IC50 (CaCo2; [9]): 3 µM | IC50 (DU145; [10]): 2.4 µM | IC50 (MDA-MB-231; [11]): 1.3 µM | IC50 (PC3; [12]): 2.5 µM | IC50 (SK-Mel-28; [13]): 1 µM | IC50 (SK-N-SH; [14]): 2 µM

Compound: COc1cccc(CCN2CCN(C(=O)c3ccc(Cc4ccc5c(c4)c(C)c(C)n5CCCN4CCN(C)CC4)cc3)CC2)c1 [Compound 3523, (4-((2,3-dimethyl-1-(3-(4-methylpiperazin-1-yl)propyl)-1H-indol-5-yl)methyl)phenyl)(4-(3-methoxyphenethyl)piperazin-1-yl)methanone]
IC50 (A549; [8]): 1.4 µM | IC50 (CaCo2; [9]): 3.1 µM | IC50 (DU145; [10]): 2.1 µM | IC50 (MDA-MB-231; [11]): 1.1 µM | IC50 (PC3; [12]): 2.4 µM | IC50 (SK-Mel-28; [13]): 0.8 µM | IC50 (SK-N-SH; [14]): 2.1 µM

Compound: Cc1c(C)n(CCCN2CCN(C)CC2)c2ccc(Cc3ccc(C(=O)N4CCN(CCc5ccccc5)CC4)cc3)cc12 [Compound 3524, (4-((2,3-dimethyl-1-(3-(4-methylpiperazin-1-yl)propyl)-1H-indol-5-yl)methyl)phenyl)(4-phenethylpiperazin-1-yl)methanone]
IC50 (A549; [8]): 0.9 µM | IC50 (CaCo2; [9]): 1.7 µM | IC50 (DU145; [10]): 1.8 µM | IC50 (MDA-MB-231; [11]): 1.1 µM | IC50 (PC3; [12]): 0.9 µM | IC50 (SK-Mel-28; [13]): 1.1 µM | IC50 (SK-N-SH; [14]): 1.4 µM

Compound: Cc1c(C)n(CCCN2CCN(C)CC2)c2ccc(Oc3ccc(C(=O)N4CCN(CCc5ccc(F)cc5)CC4)cc3)cc12 [Compound 3525, (4-((2,3-dimethyl-1-(3-(4-methylpiperazin-1-yl)propyl)-1H-indol-5-yl)oxy)phenyl)(4-(4-fluorophenethyl)piperazin-1-yl)methanone]
IC50 (A549; [1]): 3.8 µM | IC50 (CaCo2; [2]): 4.1 µM | IC50 (DU145; [3]): 4.1 µM | IC50 (MDA-MB-231; [4]): 4.3 µM | IC50 (PC3; [5]): 4.5 µM | IC50 (SK-Mel-28; [6]): 1.7 µM | IC50 (SK-N-SH; [7]): 1.9 µM

Compound: COc1ccc(CCN2CCN(C(=O)c3ccc(Oc4ccc5c(c4)c(C)c(C)n5CCCN4CCN(C)CC4)cc3)CC2)cc1 [Compound 3526]
IC50 (A549; [1]): 3 µM | IC50 (CaCo2; [2]): 5.3 µM | IC50 (DU145; [3]): 9 µM | IC50 (MDA-MB-231; [4]): 13.4 µM | IC50 (PC3; [5]): 15.6 µM | IC50 (SK-Mel-28; [6]): 4.8 µM | IC50 (SK-N-SH; [7]): 4.8 µM

Second part, the compound after the results:

IC50 (A549; [8]): 3.3 µM | IC50 (CaCo2; [9]): 3.1 µM | IC50 (DU145; [10]): 3.8 µM | IC50 (MDA-MB-231; [11]): 3.6 µM | IC50 (PC3; [12]): 4 µM | IC50 (SK-Mel-28; [13]): 3.4 µM | IC50 (SK-N-SH; [14]): 3.3 µM
Compound: Cc1c(C)n(CCCN2CCN(C)CC2)c2ccc(Nc3cccc(C(=O)N4CCN(CCc5ccc(F)cc5)CC4)c3)cc12 [Compound 3513, (3-((2,3-dimethyl-1-(3-(4-methylpiperazin-1-yl)propyl)-1H-indol-5-yl)amino)phenyl)(4-(4-fluorophenethyl)piperazin-1-yl)methanone]

IC50 (A549; [8]): 4.3 µM | IC50 (CaCo2; [9]): 4.6 µM | IC50 (DU145; [10]): 4 µM | IC50 (MDA-MB-231; [11]): 3.3 µM | IC50 (PC3; [12]): 4.9 µM | IC50 (SK-Mel-28; [13]): 2.7 µM | IC50 (SK-N-SH; [14]): 3.4 µM
Compound: Cc1c(C)n(CCCN2CCN(C)CC2)c2ccc(Nc3cccc(C(=O)N4CCN(CCc5ccc6c(c5)OCO6)CC4)c3)cc12 [Compound 3515, (4-(2-(benzo[d][1,3]dioxol-5-yl)ethyl)piperazin-1-yl)(3-((2,3-dimethyl-1-(3-(4-methylpiperazin-1-yl)propyl)-1H-indol-5-yl)amino)phenyl)methanone]

IC50 (A549; [8]): 4.4 µM | IC50 (CaCo2; [9]): > 30 µM | IC50 (DU145; [10]): 7.1 µM | IC50 (MDA-MB-231; [11]): 5.3 µM | IC50 (PC3; [12]): 21.1 µM | IC50 (SK-Mel-28; [13]): 3.7 µM | IC50 (SK-N-SH; [14]): 4.5 µM
Compound: COc1cccc(CCN2CCN(C(=O)c3cccc(Nc4ccc5c(c4)c(C)c(C)n5CCCN4CCN(C)CC4)c3)CC2)c1 [Compound 3517, (3-((2,3-dimethyl-1-(3-(4-methylpiperazin-1-yl)propyl)-1H-indol-5-yl)amino)phenyl)(4-(3-methoxyphenethyl)piperazin-1-yl)methanone]

IC50 (A549; [8]): 3 µM | IC50 (CaCo2; [9]): 2.5 µM | IC50 (DU145; [10]): 3.2 µM | IC50 (MDA-MB-231; [11]): 2.1 µM | IC50 (PC3; [12]): 4.1 µM | IC50 (SK-Mel-28; [13]): 2.4 µM | IC50 (SK-N-SH; [14]): 2.3 µM
Compound: Cc1c(C)n(CCCN2CCN(C)CC2)c2ccc(Nc3cccc(C(=O)N4CCN(CCc5ccccc5)CC4)c3)cc12 [Compound 3518, (3-((2,3-dimethyl-1-(3-(4-methylpiperazin-1-yl)propyl)-1H-indol-5-yl)amino)phenyl)(4-phenethylpiperazin-1-yl)methanone]

IC50 (A549; [1]): 5.9 µM | IC50 (CaCo2; [2]): 6 µM | IC50 (DU145; [3]): 5.7 µM | IC50 (MDA-MB-231; [4]): 6.6 µM | IC50 (PC3; [5]): 6.3 µM | IC50 (SK-Mel-28; [6]): 4.1 µM | IC50 (SK-N-SH; [7]): 4.2 µM
Compound: Cc1c(C)n(CCCN2CCN(C)CC2)c2ccc(Cc3ccc(C(=O)N4CCN(CCc5ccc6c(c5)OCO6)CC4)cc3)cc12 [Compound 3521, (4-(2-(benzo[d][1,3]dioxol-5-yl)ethyl)piperazin-1-yl)(4-((2,3-dimethyl-1-(3-(4-methylpiperazin-1-yl)propyl)-1H-indol-5-yl)methyl)phenyl)methanone]
